We go through 2 sequences from patent publication US20100184699A1, “Peptide Derived From Prostate-Related Protein As Cancer Vaccine Candidate For Prostate Cancer Patient Who Is Positive For Hla-A3 Super-Type Allele Molecule” (priority 2005, published 2010).

Where “and” joins values, the source holds several entries; their conditions need not be identical. Identical values can stand only once. Like-named read-outs stand apart in the source and are kept apart here.

For the assay, the system named is C1R-A11, -A31 or -A33 cells pulsed with corresponding peptide. Nature of the assay: Induction of peptide-specific CTLs from PBMCs (IFN-γ ELISA). Format: cell-based, human. The note with it: for IFN-γ production, HIV peptide background subtracted: day 15, significant values only. On the technique in general: In an ELISA, binding on a coated surface is turned into a signal by an enzyme label.

For the sequence “LLGPGRPYR (TRP2-derived peptide) [reference compound]”, the “IFN-γ production, HIV peptide background subtracted” value is, setting by setting: (healthy donor 1, A31) 143 pg/mL; (healthy donor 4, A31) 180 pg/mL; (healthy donor 6, A33) 90 pg/mL; (healthy donor 9, A11) 182 pg/mL; (healthy donor 10, A11) 207 pg/mL; (healthy donor 14, A11) 94 pg/mL. In addition, the “IFN-γ production, HIV peptide background subtracted” value was found to be 155 pg/mL (prostate cancer patient 9, A11); 292 pg/mL (prostate cancer patient 15, A33); 1093 pg/mL (prostate cancer patient 17, A33); 115 pg/mL (prostate cancer patient 19, A33); 115 pg/mL (prostate cancer patient 22, A31). Also, the “Total (positive / tested)” value by setting is: (healthy donors) 6/9; (prostate cancer patients) 5/13.
For the sequence “NVKNLYEKVK (Flu-derived peptide) [reference compound]”, the “Total (positive / tested)” value is 8/13 and 5/9.
